The text below walks through data of patent US7718715B2, “pH-modified latex comprising a synergistic combination of biocides” (S.C. Johnson & Son, Inc., priority 2004, dated 2010).

Assay [1] relates to Escherichia coli, Pseudomonas aeruginosa, Candida albicans, Aspergillus niger. Briefly: Challenge Test, all test organisms. The settings on record: stabilized acrylic latex A. Format: cell-based. The procedure:
The following cultures were obtained from American Type Culture Collection (ATCC) at 10801 University Boulevard, Manassas, Va. 20110-2209: Escherichia coli #11229, Pseudomonas aeruginosa #15442, Candida albicans #10231, Aspergillus niger #6275. The bacterial inoculum was 0.10 ml of a 1:1 mixture of the 24-hr±4 hr culture of E. coli and P. aeruginosa in 25 grams of sample to give approximately 4×10^6 CFU/g. Both E. coli culture and the P. aeruginosa culture were grown in Nutrient Broth (Difco Laboratories, Detroit, Mich.) at 35° C. The yeast inoculum was 0.10 ml of a 72-hr±4 hr culture of C. albicans in 25 grams of sample to give approximately 2×10^5 CFU/g. The C. albicans culture was grown in Potato Dextrose Broth (Difco Laboratories, Detroit, Mich.) at 28° C. The mold inoculum was 0.10 ml of A. niger culture specimen in 25 grams of sample to give approximately 2×10^5 CFU/g. The culture specimen was obtained from 7-day-old A. niger culture grown on Sabouraud Dextrose Agar (Difco Laboratories, Detroit, Mich.) with 0.2% Triton X-100 in 0.85% saline. Each of the 25-g samples were inoculated or challenged with 0.10 ml of the bacterial inoculum, the yeast inoculum, and the mold inoculum respectively on day-0 and day-14. All samples were stored at ambient temperature. […] Plates were read after incubation time. […]

The next assay concerns Aspergillus niger #6275. Briefly: Challenge Test (Antimicrobial Effectiveness Test), mold inoculum. Format: cell-based. Also on record: key to Challenge Test result: Mold A. niger: Fail: Recovery of surviving organisms at 14 days was a failing result for the challenge test. The note with it: for Challenge Test result: Mold A. niger: stabilized acrylic latex A, DN 22%. How it is done:
The following cultures were obtained from American Type Culture Collection (ATCC) at 10801 University Boulevard, Manassas, Va. 20110-2209: Escherichia coli #11229, Pseudomonas aeruginosa #15442, Candida albicans #10231, Aspergillus niger #6275. The mold inoculum was 0.10 ml of A. niger culture specimen in 25 grams of sample to give approximately 2×10^5 CFU/g. The culture specimen was obtained from 7-day-old A. niger culture grown on Sabouraud Dextrose Agar (Difco Laboratories, Detroit, Mich.) with 0.2% Triton X-100 in 0.85% saline. Each of the 25-g samples were inoculated or challenged with 0.10 ml of the bacterial inoculum, the yeast inoculum, and the mold inoculum respectively on day-0 and day-14. All samples were stored at ambient temperature. Each sample (10 microliter) was streaked on appropriate agar plates (bacteria on Tryptic Soy Agar (Difco Laboratories, Detroit, Mich.) plates with neutralizer and yeast/mold on Potato Dextrose Agar (Difco Laboratories, Detroit, Mich.) plates with neutralizer) on day-1, day-2, day-3, day-7, day-14, day-15, day-16, day-17, day-21, and day-28 to test for survivors. Streaked plates were incubated at appropriate temperature and time (48-hr at 35±2° C. for bacteria and 72-hr at 28±2° C. for yeast/mold). On day-14, each sample was re-inoculated with appropriate inoculum after streaking on agar plates. Plates were read after incubation time. Recovery of surviving organisms at 14 days was a failing result for the challenge test. Biocides were always added after the reaction has been completed and after the batch has been cooled to <50° C. The desired temperature was dependent on the specific biocide. Many biocides become deactivated if exposed to high temperatures for an extended time. Each biocide was diluted with about 5× its weight with DI water and slowly added to the batch with good agitation. The dilution is to prevent the biocide from shocking the latex. The batch was mixed for a minimum of 20 minutes after the biocide was added to ensure good incorporation. If any temporary destabilization to the latex had occurred, it had time to recover prior to filtration. The Challenge Test is a qualitative laboratory procedure used to differentiate poorly and marginally preserved products from well-preserved products. Products are intentionally inoculated with test organisms and then evaluated by use of streak plating technique to determine if microbial reduction has been attained.

On to `O=[N+]([O-])C(Br)(CO)CO` [Bronopol, 2-bromo-2-nitro-1,3-propanediol], for which the “concentration required to kill all organisms” value in assay [1] is 0.5%. Besides, the “Challenge Test result: Mold A. niger” value in the assay with Aspergillus niger #6275 (0.10% Bronopol (30% active), 0.00% Bioban CS-1135, pH 6.64, Table 1) is reported as “Fail”; in the assay on Aspergillus niger #6275 (0.10% Bronopol (30% active), 0.00% Dowicil 75, pH 6.64, Table 3) it was “Fail”; with Aspergillus niger #6275 (0.20% Bronopol (30% active), 0.00% Bioban CS-1135, pH 6.65, Table 1) it was “Fail”; in the assay on Aspergillus niger #6275 (0.20% Bronopol (30% active), 0.00% Dowicil 75, pH 6.65, Table 3), “Fail”; with Aspergillus niger #6275 (0.50% Bronopol (30% active), 0.00% Bioban CS-1135, pH 6.58, Table 1), “Pass”; in the assay on Aspergillus niger #6275 (0.50% Bronopol (30% active), 0.00% Dowicil 75, pH 6.58, Table 3), “Pass”. The “Challenge Test result: Mold A. niger” value with Aspergillus niger #6275 (0.80% Bronopol (30% active), 0.00% Bioban CS-1135, pH 6.57, Table 1) is listed as “Pass”; in the assay with Aspergillus niger #6275 (0.80% Bronopol (30% active), 0.00% Dowicil 75, pH 6.57, Table 3) it was “Pass”; in the assay on Aspergillus niger #6275 (1.20% Bronopol (30% active), 0.00% Bioban CS-1135, pH 6.57, Table 1), “Pass”; with Aspergillus niger #6275 (1.20% Bronopol (30% active), 0.00% Dowicil 75, pH 6.57, Table 3), “Pass”. Further, the “killing of the mold (A. niger)” value in the assay on Aspergillus niger #6275 (0.2% BRONOPOL, acrylic latex A) was “failed to kill”. Also, the “control of the growth of Aspergillus niger” value with Aspergillus niger #6275 (maximum allowable level, test stabilized acrylic latex) is on record as “failed to control”.
For `CC1(C)COCN1` [Bioban CS-1135, 4,4-dimethyl-oxazolidine], the “concentration required to kill all organisms” value in assay [1] was 2.0%. In addition, the “Challenge Test result: Mold A. niger” value is “Fail” in the assay on Aspergillus niger #6275 (0.10% Bioban CS-1135, 0.00% Bronopol, pH 6.68); “Pass” in the assay on Aspergillus niger #6275 (0.20% Bioban CS-1135, 0.00% Bronopol, pH 6.69); “Pass” in the assay with Aspergillus niger #6275 (0.80% Bioban CS-1135, 0.00% Bronopol, pH 6.62); “Pass” with Aspergillus niger #6275 (1.20% Bioban CS-1135, 0.00% Bronopol, pH 6.64); “Pass” in the assay with Aspergillus niger #6275 (2.00% Bioban CS-1135, 0.00% Bronopol, pH 6.82).
